From ChEMBL document CHEMBL1828523, “Synthesis and stereospecificity of 4,5-disubstituted oxazolidinone ligands binding to T-box riboswitch RNA” (J Med Chem, 2011)

molecular target: Nucleic Acid; experiment: Binding affinity to Bacillus subtilis antiterminator AM1A RNA model after 130 mins by FRET assay; assay type: nucleic-acid assay

Row | Structure (SMILES) | Kd [µM]
1 | O=C(Cc1ccccc1)OC[C@H]1OC(=O)N[C@@H]1CN1CCN(c2ccccc2)CC1 | 12
2 | O=C(Cc1ccccc1)OC[C@@H]1OC(=O)N[C@H]1CN1CCN(c2ccccc2)CC1 | 16
3 | CC(=O)c1ccc(NC(=O)OC[C@H]2OC(=O)N[C@H]2CN2CCN(c3ccccc3)CC2)cc1 (racemic) | 1.8
4 | O=C(Cc1ccccc1)OC[C@H]1OC(=O)N[C@H]1CN1CCN(c2ccccc2)CC1 (racemic) | > 100
5 | CC(=O)c1ccc(NC(=O)OC[C@H]2OC(=O)N[C@@H]2CN2CCN(c3ccccc3)CC2)cc1 | 3
6 | CC(=O)c1ccc(NC(=O)OC[C@@H]2OC(=O)N[C@H]2CN2CCN(c3ccccc3)CC2)cc1 | 1.6

molecular target: Nucleic Acid; experiment: Binding affinity to Bacillus subtilis antiterminator AM1A RNA model after 70 mins by FRET assay; assay type: nucleic-acid assay

Row | Structure (SMILES) | Kd [µM]
7 | O=C(Cc1ccccc1)OC[C@H]1OC(=O)N[C@H]1CN1CCN(c2ccccc2)CC1 (racemic) | 5.1
